The text below walks through data of paper PMC6188661 (Journal of medicinal chemistry, 2013).

Starred links: 1 amine or outer side, 2 acyl side, 3 side chain; linkers in the order of their positions; H or OH if unused. Non-standard residues stand in square brackets, D forms with d. Residues, ends and D or L forms follow the SMILES beside them. αMeNva(5-ylidene) = C[C@@](CCC=[*:3])(N[*:1])C(=O)[*:2]; S5 = C=CCCC[C@](C)(N)C(=O)O

Series [1] concerns the target T1, HIV-1 integrase (IN) (Human immunodeficiency virus type 1 group M subtype B, UniProt P04585). Nature of the series: In vitro HIV-1 IN catalytic activity inhibition, 3′-processing. The format is biochemical.
Series [2] concerns the target T1, HIV-1 integrase (IN). Nature of the series: In vitro HIV-1 IN catalytic activity inhibition, strand transfer. It is filed as biochemical.
The subject of a further series is HIV-1. The settings on record: 50% cytoprotective activity in HIV-1 infected MT-4 cells.
A further series deals with MT-4 cells. In words: Cytotoxicity in MT-4 cells. The format is cell-based. Conditions: 50% cell-death in same cells (MT-4).

`C=CCCC[C@](C)(NC(=O)[C@H](CC(C)C)NC(=O)[C@H](CCCCN)NC(=O)[C@H](CC(C)C)NC(=O)[C@](C)(CCCC=C)NC(=O)[C@H](Cc1ccccc1)NC(=O)[C@H](Cc1ccc(O)cc1)NC(=O)[C@H](C)NC(=O)[C@@H](N)[C@@H](C)O)C(=O)NCC(=O)N[C@@H](CCCNC(=N)N)C(=O)N[C@@H](Cc1c[nH]c2ccccc12)C(N)=O` [NLH5] (H-TAYF[S5]LKL[S5]GRW-NH2; N-terminus assumed): the IC50 came out at 9 ± 1 µM on HIV-1 integrase (IN) [1] and 6 ± 1 µM against HIV-1 integrase (IN) [2]. For the same compound, in the series with HIV-1, a half-maximal effect (EC50) was put at 28 µM. This compound also yielded a CC50 in the series on MT-4 cells of 28 µM.

Turning to `C=CCC[C@](C)(NC(=O)[C@H](CC(C)C)NC(=O)[C@H](CCCCN)NC(=O)[C@H](CC(C)C)NC(=O)[C@](C)(CCC=C)NC(=O)[C@H](Cc1ccccc1)NC(=O)[C@H](Cc1ccc(O)cc1)NC(=O)[C@H](C)NC(=O)[C@@H](N)[C@@H](C)O)C(=O)NCC(=O)N[C@@H](CCCNC(=N)N)C(=O)N[C@@H](Cc1c[nH]c2ccccc12)C(N)=O` [NLH11] (H-TAYF[αMeNva(5-ylidene)]LKL[αMeNva(5-ylidene)]GRW-NH2; N-terminus assumed), the results for the IC50 against HIV-1 integrase (IN) [1] and against HIV-1 integrase (IN) [2] were 74 ± 11 µM and 68 ± 5 µM, respectively. The compound also showed an EC50 with HIV-1 greater than 18 µM. In the series with MT-4 cells, the CC50 was found to be 18 µM.
